Molecular target: T1, CFTR channel in human colonic T84 cells (Homo sapiens, UniProt P13569)
T1 construct: host or cells: T84 human colonic cells
Assay: T84 assay (FLIPR membrane potential dye, forskolin/IBMX-stimulated)
Format: cell-based
Settings: average of at least 2 runs unless marked n = 1
Procedure: For example, Human colonic T84 cells can be acquired from the European Collection of Cell Cultures (ECACC) and grown in standard culture conditions as described by the supplier. On the day before assay 25,000 T84 cells per well are plated into standard black walled, clear bottom 384-well assay plates in standard growth medium consisting of DMEM:F12 with 10% FBS and incubated overnight. […] T84 cells are incubated with the FLIPR Red membrane potential dye for 45 minutes in the presence and absence of test compound before being transferred to a commercially available fluorescence imaging plate reader (FLIPR384, Molecular Devices Corporation). Fluorescence levels are monitored continuously every second for 150 seconds; after an initial 10 second baseline, CFTR channel activity is stimulated through the addition of 10 μM forskolin in the presence of 100 μM of the phosphodiesterase inhibitor iso-butyl-methylxanthine (IBMX). […] CFTR channel opening causes chloride ion efflux and subsequent depolarization of the cells, which is measured by an increase in fluorescence. CFTR inhibitor compounds prevent cell depolarization and the associated increase in fluorescence. […]

T1 sequence (P13569 whole entry): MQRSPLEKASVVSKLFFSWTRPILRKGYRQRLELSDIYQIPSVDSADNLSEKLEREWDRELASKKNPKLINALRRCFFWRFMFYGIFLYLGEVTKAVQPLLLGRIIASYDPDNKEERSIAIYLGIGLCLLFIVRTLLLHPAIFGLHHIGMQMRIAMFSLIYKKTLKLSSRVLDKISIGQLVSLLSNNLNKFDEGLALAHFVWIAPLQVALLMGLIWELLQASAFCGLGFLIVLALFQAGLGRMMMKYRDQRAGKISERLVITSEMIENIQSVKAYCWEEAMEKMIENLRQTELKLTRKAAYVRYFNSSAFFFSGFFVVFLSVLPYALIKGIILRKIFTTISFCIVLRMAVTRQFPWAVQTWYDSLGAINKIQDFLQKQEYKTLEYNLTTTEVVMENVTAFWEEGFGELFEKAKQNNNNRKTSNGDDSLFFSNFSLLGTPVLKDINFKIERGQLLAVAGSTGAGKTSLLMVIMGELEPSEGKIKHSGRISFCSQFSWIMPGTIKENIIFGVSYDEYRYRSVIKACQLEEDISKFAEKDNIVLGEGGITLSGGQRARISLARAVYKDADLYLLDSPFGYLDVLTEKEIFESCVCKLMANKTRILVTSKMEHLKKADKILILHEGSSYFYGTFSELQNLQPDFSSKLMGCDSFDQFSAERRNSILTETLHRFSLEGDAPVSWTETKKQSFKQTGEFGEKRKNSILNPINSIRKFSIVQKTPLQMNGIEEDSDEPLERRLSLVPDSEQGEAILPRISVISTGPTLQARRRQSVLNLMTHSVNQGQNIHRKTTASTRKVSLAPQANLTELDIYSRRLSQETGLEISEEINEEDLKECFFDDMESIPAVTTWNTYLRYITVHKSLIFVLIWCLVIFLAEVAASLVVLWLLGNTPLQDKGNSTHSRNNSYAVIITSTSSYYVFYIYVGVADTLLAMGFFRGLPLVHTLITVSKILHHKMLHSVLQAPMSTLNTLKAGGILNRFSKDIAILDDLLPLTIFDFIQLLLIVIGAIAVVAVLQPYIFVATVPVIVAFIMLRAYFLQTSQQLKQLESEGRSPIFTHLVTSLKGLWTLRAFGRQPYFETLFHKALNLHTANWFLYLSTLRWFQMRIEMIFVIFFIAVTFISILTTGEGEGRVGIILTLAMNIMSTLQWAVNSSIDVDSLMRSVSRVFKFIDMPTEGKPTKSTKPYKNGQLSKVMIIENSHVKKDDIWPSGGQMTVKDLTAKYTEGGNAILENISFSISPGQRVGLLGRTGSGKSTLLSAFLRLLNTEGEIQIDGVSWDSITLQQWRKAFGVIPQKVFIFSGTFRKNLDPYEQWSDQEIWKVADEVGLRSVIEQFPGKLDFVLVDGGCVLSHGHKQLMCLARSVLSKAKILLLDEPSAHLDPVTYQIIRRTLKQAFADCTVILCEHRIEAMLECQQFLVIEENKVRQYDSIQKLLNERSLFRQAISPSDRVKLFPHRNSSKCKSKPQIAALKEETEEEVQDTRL

| IC50 [µM] | Structure (SMILES) |
| --- | --- |
| ≥ 50 | O=C(NCc1ccc(Oc2cc(C(F)(F)F)cc(C(F)(F)F)c2)cc1)c1ncn(-c2cc(Cl)c(O)c(Cl)c2)n1 [Compound 62, N-(4-(3,5-bis(trifluoromethyl)phenoxy)benzyl)-1-(3,5-dichloro-4-hydroxyphenyl)-1H-1,2,4-triazole-3-carboxamide] |
| ≥ 50 | CN(C)c1cccc(Oc2ccc(CNC(=O)c3ncn(-c4cc(Cl)c(O)c(Cl)c4)n3)cc2)c1 [Compound 64, 1-(3,5-dichloro-4-hydroxyphenyl)-N-(4-(3-(dimethylamino)phenoxy)benzyl)-1H-1,2,4-triazole-3-carboxamide] |

Source: patent US20110237528A1, “COMPOSITIONS AND METHODS COMPRISING IMIDAZOLE AND TRIAZOLE DERIVATIVES” (INSTITUTE FOR ONEWORLD HEALTH, priority 2008, published 2011)
